Data as given in patent US20140350034A1, “Aminopyridine derivatives as plasma kallikrein inhibitors” (NOVARTIS AG, priority 2012, published 2014).

What follows are compounds tested against T1, Human plasma kallikrein (Homo sapiens, UniProt P03952) (assay: In vitro inhibition of plasma kallikrein (fluorogenic substrate DPro-Phe-Arg-(Rh110)-γGlu-OH)). Settings: human plasma kallikrein 12 pM, substrate 0.5 μM, 1 hour pre-incubation at room temperature, read after 1 hour.
T1 construct: purchased Kordia (Leiden, Netherlands) batch HPKA 1303
T1 sequence (P03952 391-638 limits assumed): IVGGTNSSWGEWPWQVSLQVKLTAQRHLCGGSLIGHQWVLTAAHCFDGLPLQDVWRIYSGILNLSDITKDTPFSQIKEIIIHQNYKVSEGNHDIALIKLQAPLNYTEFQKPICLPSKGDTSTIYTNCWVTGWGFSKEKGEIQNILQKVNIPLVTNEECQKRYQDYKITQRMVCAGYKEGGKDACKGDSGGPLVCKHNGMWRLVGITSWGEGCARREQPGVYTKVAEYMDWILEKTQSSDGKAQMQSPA
T1 sequence (P03952 20-390 partner limits assumed): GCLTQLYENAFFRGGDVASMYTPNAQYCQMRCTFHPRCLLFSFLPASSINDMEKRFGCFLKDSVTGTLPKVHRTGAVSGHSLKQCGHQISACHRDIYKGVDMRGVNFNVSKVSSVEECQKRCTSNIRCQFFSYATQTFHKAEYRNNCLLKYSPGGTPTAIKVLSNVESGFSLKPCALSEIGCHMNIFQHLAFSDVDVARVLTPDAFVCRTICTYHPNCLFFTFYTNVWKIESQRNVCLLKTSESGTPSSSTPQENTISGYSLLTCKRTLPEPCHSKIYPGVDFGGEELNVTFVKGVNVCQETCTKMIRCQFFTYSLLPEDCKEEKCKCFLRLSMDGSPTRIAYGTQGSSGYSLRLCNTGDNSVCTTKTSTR
Type: biochemical
Experimental: In Vitro Inhibition of Plasma Kallikrein
The fluorogenic substrate DPro-Phe-Arg-(Rh110)-γGlu-OH (where DPro is the amino acid d-proline, Rh110 is the fluorophore rhodamine 110 and γGlu is a […] linked to Rh110 via the gamma-carbonyl function; from Biosyntan, Berlin, Germany), being based on the chromogenic substrate described in Gallimore et al (Thromb Res 25, 293-298, 1982), was dissolved in DMSO at 5 mM and stored at −80° C. All other chemicals were of analytical grade.
Human plasma kallikrein was purchased from Kordia (Leiden, Netherlands, batch HPKA 1303) in lyophilized form.
The protein solution was reconstituted from the lyophilisate by addition of deinonized water. The resulting stock solution comprised the protein at a concentration of 0.17 mg/ml in 4 mM sodium acetate/HCl and 150 mM NaCl at pH 5.3. The stock solution was stored in aliquots at −80° C.
Enzymatic reactions were conducted in ‘assay buffer’, comprising 50 mM Hepes/NaOH at pH 7.8, 150 mM NaCl, 1 mM EDTA and 0.05% (w/v) CHAPS.
Both, enzyme and substrate were diluted in assay buffer.
All protein and peptide containing solutions were handled in siliconized tubes (Life Systems Design, Merenschwand, Switzerland). The compound solutions as well as the enzyme and the substrate solutions were transferred to 384-well plates (black Cliniplate; cat. no. 95040020 Labsystems Oy, Finland) by means of a CyBi-Well 96-channel pipettor (CyBio AG, Jena, Germany). Plate measurements were conducted by the means of a Safire2 reader (TECAN, Maennedorf, Switzerland). The Safire2 is a monochomator-based instrument and wavelengths of 485 nm and 535 nm were taken for fluorescence excitation and emission acquisition, respectively. The bandwidths were set to 10 nm in both the excitation and the emission path. The fluorescence in each well was excited by three flashes per measurement.
Determination of IC50 Values
For the determination of IC50 values, the assays were performed at room temperature in 384-well plates with a total assay volume of 25.25 μl per well.
The test compound was dissolved in 90% (v/v) DMSO/water. For the assays, 250 nL of the 90% (v/v) DMSO/water solution or compound solution were added per well, followed by the addition of 12.5 μl protease solution (protease in assay buffer). The final assay concentration of the human plasma kallikrein was nominally 12 pM, the 11 compound concentrations in the dilution series were in the range form 1 nM to 100 μM. After 1 hour of pre-incubation at room temperature, the reactions were started by the addition of 12.5 μl substrate solution (in assay buffer, final assay concentration was 0.5 μM). After the addition of the substrate solution, the final DMSO concentration in the assay was 0.9% (v/v). The effect of the compound on the enzymatic activity was obtained from the linear part of the progress curves and determined after 1 hour (t=60 min). The IC50 value was calculated from the plot of percentage of inhibition vs. inhibitor concentration by a logistics fit according to the following equation:
where y is the %-inhibition at the inhibitor concentration, x. A1 is the lowest inhibition value, i.e. 0%, and A2 the maximum inhibition value, i.e. 100%. The exponent, p, is the Hill coefficient. The curve fitting was conducted with the non-linear regression routine of the analysis software Origin 7.5SR6 (Origin Lab Corporation).

| Compound | IC50 [µM] |
| --- | --- |
| Cc1cc(N)nc(C)c1CNC(=O)c1cc2ccccc2[nH]1 [Example 5, N-((6-amino-2,4-dimethylpyridin-3-yl)methyl)-1H-indole-2-carboxamide] | 3.81 |
| Cc1cc(N)nc(C)c1CNC(=O)c1cc2ccccc2s1 [Example 3, N-((6-amino-2,4-dimethylpyridin-3-yl)methyl)benzo[b]thiophene-2-carboxamide] | 5.39 |
| CCc1cc2c(NCc3c(C)cc(N)nc3C)ncnc2s1 [Example 1, N-((6-amino-2,4-dimethylpyridin-3-yl)methyl)-6-ethylthieno[2,3-d]pyrimidin-4-amine] | 27.1 |
| Cc1cc(N)nc(C)c1CNC(=O)c1ccc2ccccc2c1 [Example 6, N-((6-amino-2,4-dimethylpyridin-3-yl)methyl)-2-naphthamide] | 2.32 |
| Cc1cc(N)nc(C)c1CNc1ncnc2oc(Cc3c(Cl)cccc3Cl)nc12 [Example 4, N-((6-amino-2,4-dimethylpyridin-3-yl)methyl)-2-(2,6-dichlorobenzyl) oxazolo[5,4-d]pyrimidin-7-amine] | 1.78 |
| Cc1cc(N)nc(C)c1CNC(=O)c1cc2ccccc2o1 [Example 2, N-((6-amino-2,4-dimethylpyridin-3-yl)methyl)benzofuran-2-carboxamide] | 4.73 |
| Cc1cc(N)nc(C)c1CNc1ncc2ccn(Cc3ccc4ccccc4c3)c2n1 [Example 7, N-((6-amino-2,4-dimethylpyridin-3-yl)methyl)-7-(naphthalen-2-ylmethyl)-7H-pyrrolo[2,3-d]pyrimidin-2-amine] | 1.63 |

Same assay, conditions: the above-described assay (human plasma kallikrein)

| Compound | IC50 [µM] |
| --- | --- |
| Cc1cc(N)nc(C)c1CNc1ncnc2c1ccn2C [N-((6-amino-2,4-dimethyl-pyridin-3-yl)-methyl)-9-methyl-2,4,9-triaza-bicyclo[4.3.0]nona-1(6),2,4,7-tetraen-5-amine] | > 30 |
| COc1cc2ncnc(NCc3c(C)cc(N)nc3C)c2cc1OC [N-((6-amino-2,4-dimethyl-pyridin-3-yl)-methyl)-8,9-dimethoxy-2,4-diaza-bicyclo[4.4.0]deca-1(6),2,4,7,9-pentaen-5-amine] | > 30 |
